Measured values from patent US20240101538A1, “PROTEIN-PROTEIN INTERACTION MODULATORS OF AURORA KINASE A AND THEIR USE IN THE PREVENTION AND/OR TREATMENT OF CANCER” (EBERHARD KARLS UNIVERSITÄT TÜBINGEN, priority 2020, published 2024).

Columns and labels:
MYC = test: Western blot analysis of cellular MYC levels in NMP53^−/− cells; format: cell-based, murine; conditions: 8 h after treatment with increasing concentrations
Experimental: A. Western blot analysis of MYC and AURKA in tumor cells (NMP53/cells) 8 h after treatment with increasing concentrations of compound 2c [N-(5-((4-(1H-pyrazole-4-yl)benzyl)amino)-2-fluorophenyl)-3-(furan-2-yl)propanamide]. Vinculin served as loading control (n=2) B. Western blot analysis of MYC and AURKA in tumor cells (NMP53^−/− cells) 8 h after treatment with increasing concentrations of compound 3a [N-(2-fluoro-5-((4-(1-methyl-1H-pyrazole-4-yl)benzyl)amino)phenyl)-3-(furan-2-yl)propanamide]. Vinculin served as loading control (n=2). […]
For western blot analysis, 2×10^6 cells were seeded per 10 cm dish and next day treated with the indicated compound concentrations. […] After addition of 4× Laemmli buffer (200 mM Tris-HCl pH 6.8, 8% SDS, 4% (3-mercaptoethanol, 40% glycerol, 0.33% bromophenol blue) the lysates were boiled for 5 min at 95° C. For western blot analysis, proteins were separated by SDS-polyacrylamide electrophoresis (using 25 μg of each sample) and transferred onto PVDF Immobilon-P membranes (Millipore). The blots were incubated with antibodies specific to MYC (Abeam ab32072, 1:1 000), AURKA (Abeam ab13824, 1:1 000) and Vinculin (Sigma Aldrich V9131-2 mL 1:10 000), followed by peroxidase-conjugated secondary antibodies. Proteins were detected by ChemiDoc MP Imaging System (Bio-Rad) using Clarity Western ECL Substrate (Bio-Rad).

AURKA = AURKA (Homo sapiens (Human), UniProt O14965); test: Binding to AURKA
320 wildtype kinases = test: Kinome screen with 320 wildtype kinases; format: biochemical
NMP53^−/− cells = test: Immunofluorescence staining (α-tubulin, DAPI) of normal and abnormal spindles; format: cell-based, murine; conditions: different treatment times
Experimental: The AURKA compounds of this invention trigger the formation of abnormal (multipolar and monopolar) spindles a few minutes after application. A. Representative images of immunofluorescence stainings with antibodies against α-tubulin (light grey) and DAPI (surrounded by a dashed white line) of a tumor cell line (NMP53^−/− cells) treated for 24 hours with compound 3a [N-(2-fluoro-5-((4-(1-methyl-1H-pyrazole-4-yl)benzyl)amino)phenyl)-3-(furan-2-yl)-propanamide] or DMSO as a control. B. Quantification of normal and abnormal spindles of immunofluorescence staining with antibodies against α-tubulin and DAPI of a tumor cell line (NMP53^−/− cells) after different treatment times with compound 3a according to this invention or DMSO as a control.
The AURKA compounds of this invention trigger the formation of abnormal (e.g. multipolar and/or monopolar) spindles in tumor cell lines (NMP53^−/− cells) (FIG. 8).

AURKA, sequence (O14965 whole entry): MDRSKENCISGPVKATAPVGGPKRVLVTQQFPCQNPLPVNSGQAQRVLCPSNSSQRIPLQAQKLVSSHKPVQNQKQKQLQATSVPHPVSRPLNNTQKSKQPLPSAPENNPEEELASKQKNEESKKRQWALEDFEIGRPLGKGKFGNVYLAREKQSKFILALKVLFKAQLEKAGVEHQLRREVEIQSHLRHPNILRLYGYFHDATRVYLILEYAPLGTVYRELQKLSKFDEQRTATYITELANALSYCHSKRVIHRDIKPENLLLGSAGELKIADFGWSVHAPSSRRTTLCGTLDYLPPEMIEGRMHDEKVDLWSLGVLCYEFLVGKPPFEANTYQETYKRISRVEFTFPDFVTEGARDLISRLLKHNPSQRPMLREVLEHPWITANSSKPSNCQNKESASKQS

binding to AURKA (AURKA)	SMILES	MYC levels (MYC)	off-targets in kinome screen (320 wildtype kinases; 100 nM)	selectivity score (320 wildtype kinases; 500 nM)	inhibition in kinome screen (320 wildtype kinases; 320 wildtype kinases)	formation of abnormal spindles (NMP53^−/− cells)
strong binding	O=C(CCc1ccco1)Nc1cc(NCc2ccc(-c3cn[nH]c3)cc2)ccc1F [Compound 2c, N-(5-((4-(1H-pyrazole-4-yl)benzyl)amino)-2-fluorophenyl)-3-(furan-2-yl)propanamide]	reduced in a concentration dependent manner	no off-targets	0.019	–	–
–	Cn1cc(-c2ccc(CNc3ccc(F)c(NC(=O)CCc4ccco4)c3)cc2)cn1 [Compound 3a, N-(2-fluoro-5-((4-(1-methyl-1H-pyrazole-4-yl)benzyl)amino)phenyl)-3-(furan-2-yl)propanamide]	reduced in a concentration dependent manner	–	–	overall no inhibition	induce the formation of abnormal spindles within a few minutes
